Values after ≈ are worked out from the molar mass of the structure shown. Like-named read-outs stand apart in the source and are kept apart here.
Experiments:
[1] = tested on: P. falciparum NF54 (PfNF54) parasites; assay: In vitro antiplasmodial asexual blood stage activity, pLDH assay, NF54; assay type: cell-based, Plasmodium falciparum; conditions: Plasmodium falciparum
physchem [2] = conditions: 25 °C, pH 6.5, aqueous buffer, thermodynamic from solid
physchem [3] = conditions: n-octanol/phosphate buffer (1:1), pH 7.4
in vivo = conditions: male, Balb/C, mouse, po, 10 mg/kg
[4] = tested on: P. falciparum PI4K cKD line; assay: microbe, parasite or virus in culture; conditions: Plasmodium falciparum
in vitro [5] = conditions: human, Caco-2
in vitro [6] = conditions: human, pH 7.4
[7] = tested on: Chinese hamster ovary cells; assay: Cytotoxicity, MTT assay, CHO; assay type: cell-based; conditions: Cricetulus griseus, read-out: CHO IC50
[8] = for in vivo mouse CLb: total body clearance from whole blood, iv 3 mg/kg; for in vivo mouse CLu: unbound blood clearance from CLb and plasma protein binding
in vitro [9] = conditions: mouse, pH 7.4
HsMAP4K4 = HsMAP4K4 (Homo sapiens, UniProt O95819); assay: Human kinase screening, ADP-Glo, MAP4K4; assay type: biochemical; conditions: IC50/PvPI4K IC50
HsPI3Kα = HsPI3Kα (Homo sapiens, UniProt P42336); assay: Human lipid kinase screening, ADP-Glo, PI3Kα; assay type: biochemical; conditions: IC50/PvPI4K IC50
HsMINK1 = HsMINK1 (Homo sapiens, UniProt Q8N4C8); assay: Human kinase screening, ADP-Glo, MINK1; assay type: biochemical; conditions: IC50/PvPI4K IC50
HsPI4Kβ = HsPI4Kβ (Homo sapiens, UniProt Q9UBF8); assay: Human lipid kinase screening, ADP-Glo, PI4Kβ; assay type: biochemical; conditions: IC50/PvPI4K IC50
[10] = tested on: panel of the drug-resistant strains of P. falciparum; conditions: Figure 1, read-out: PfIC50; cited from earlier work
P. vivax PI4Kβ (PvPI4K) = conditions: cited from earlier work
HsPI4K = conditions: reported inhibitors, Figure 1; cited from earlier work
[11] = tested on: P. falciparum K1 (PfK1) strain; assay: In vitro antiplasmodial asexual blood stage activity, pLDH assay, K1; assay type: cell-based; conditions: Plasmodium falciparum
[12] = tested on: PI4K S743F + H1484Y and PI4K S1320L + L1418F mutant lines; conditions: 72 h, SYBR green I
[13] = tested on: L6 rat myoblast cell line; assay: Cytotoxicity, L6; assay type: cell-based; conditions: read-out: L6 IC50
HepG2 cells = assay: Cytotoxicity, MTT assay, HepG2; assay type: cell-based
PfDd2 = conditions: read-out: PfDd2 IC50; reported inhibitors, Figure 1; cited from earlier work
PfNF54 = conditions: cited from earlier work
Pf3D7 = conditions: read-out: Pf3D7 IC50; cited from earlier work
[14] = NF54, 72 h, pLDH assay, 72 h, read-out: Pf ABS IC50 NF54
[15] = read-out: IC50 Mean + SD, +aTc, mean of N=3, +aTc
[16] = read-out: IC50 Mean + SD, no aTc, mean of N=3, no aTc
[17] = read-out: IC50 for PfPI4K, +aTc, N=1, +aTc
[18] = read-out: IC50 for PfPI4K, +aTc, N=2, +aTc
[19] = read-out: IC50 for PfPI4K, +aTc, N=3, +aTc
[20] = read-out: IC50 for PfPI4K, no aTc, N=1, no aTc (knockdown)
[21] = read-out: IC50 for PfPI4K, no aTc, N=2, no aTc (knockdown)
[22] = read-out: IC50 for PfPI4K, no aTc, N=3, no aTc (knockdown)
[23] = NF54, mean, supplement, read-out: PfNF54 IC50
[24] = NF54, 72 h, read-out: Pf ABS IC50 NF54
[25] = K1, 72 h, read-out: Pf ABS IC50 K1
[26] = Homo sapiens, HepG2, read-out: HepG2 IC50

Chain of HsPI4Kβ (Q9UBF8 whole entry): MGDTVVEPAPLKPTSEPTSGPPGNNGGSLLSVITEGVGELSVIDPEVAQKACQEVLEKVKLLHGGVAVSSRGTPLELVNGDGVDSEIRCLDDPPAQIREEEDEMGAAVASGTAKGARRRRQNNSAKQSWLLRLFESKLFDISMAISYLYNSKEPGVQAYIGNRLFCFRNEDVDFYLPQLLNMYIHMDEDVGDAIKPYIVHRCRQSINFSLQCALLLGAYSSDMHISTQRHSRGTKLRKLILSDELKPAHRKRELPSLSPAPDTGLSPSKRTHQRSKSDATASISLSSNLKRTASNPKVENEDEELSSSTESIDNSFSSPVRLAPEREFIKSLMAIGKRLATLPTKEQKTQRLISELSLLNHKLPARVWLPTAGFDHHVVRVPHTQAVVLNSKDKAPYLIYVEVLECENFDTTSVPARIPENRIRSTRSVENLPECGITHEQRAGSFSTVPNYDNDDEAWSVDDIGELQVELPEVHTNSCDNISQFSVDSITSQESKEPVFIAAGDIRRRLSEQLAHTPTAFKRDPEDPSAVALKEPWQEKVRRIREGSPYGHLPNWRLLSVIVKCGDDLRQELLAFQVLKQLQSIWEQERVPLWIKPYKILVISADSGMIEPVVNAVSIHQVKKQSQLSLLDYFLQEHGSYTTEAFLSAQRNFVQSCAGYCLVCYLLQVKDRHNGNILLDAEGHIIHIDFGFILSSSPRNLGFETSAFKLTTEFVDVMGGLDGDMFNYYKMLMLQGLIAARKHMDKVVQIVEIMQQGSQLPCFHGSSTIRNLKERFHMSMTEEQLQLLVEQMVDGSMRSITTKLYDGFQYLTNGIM
Chain of HsMAP4K4 (O95819 whole entry): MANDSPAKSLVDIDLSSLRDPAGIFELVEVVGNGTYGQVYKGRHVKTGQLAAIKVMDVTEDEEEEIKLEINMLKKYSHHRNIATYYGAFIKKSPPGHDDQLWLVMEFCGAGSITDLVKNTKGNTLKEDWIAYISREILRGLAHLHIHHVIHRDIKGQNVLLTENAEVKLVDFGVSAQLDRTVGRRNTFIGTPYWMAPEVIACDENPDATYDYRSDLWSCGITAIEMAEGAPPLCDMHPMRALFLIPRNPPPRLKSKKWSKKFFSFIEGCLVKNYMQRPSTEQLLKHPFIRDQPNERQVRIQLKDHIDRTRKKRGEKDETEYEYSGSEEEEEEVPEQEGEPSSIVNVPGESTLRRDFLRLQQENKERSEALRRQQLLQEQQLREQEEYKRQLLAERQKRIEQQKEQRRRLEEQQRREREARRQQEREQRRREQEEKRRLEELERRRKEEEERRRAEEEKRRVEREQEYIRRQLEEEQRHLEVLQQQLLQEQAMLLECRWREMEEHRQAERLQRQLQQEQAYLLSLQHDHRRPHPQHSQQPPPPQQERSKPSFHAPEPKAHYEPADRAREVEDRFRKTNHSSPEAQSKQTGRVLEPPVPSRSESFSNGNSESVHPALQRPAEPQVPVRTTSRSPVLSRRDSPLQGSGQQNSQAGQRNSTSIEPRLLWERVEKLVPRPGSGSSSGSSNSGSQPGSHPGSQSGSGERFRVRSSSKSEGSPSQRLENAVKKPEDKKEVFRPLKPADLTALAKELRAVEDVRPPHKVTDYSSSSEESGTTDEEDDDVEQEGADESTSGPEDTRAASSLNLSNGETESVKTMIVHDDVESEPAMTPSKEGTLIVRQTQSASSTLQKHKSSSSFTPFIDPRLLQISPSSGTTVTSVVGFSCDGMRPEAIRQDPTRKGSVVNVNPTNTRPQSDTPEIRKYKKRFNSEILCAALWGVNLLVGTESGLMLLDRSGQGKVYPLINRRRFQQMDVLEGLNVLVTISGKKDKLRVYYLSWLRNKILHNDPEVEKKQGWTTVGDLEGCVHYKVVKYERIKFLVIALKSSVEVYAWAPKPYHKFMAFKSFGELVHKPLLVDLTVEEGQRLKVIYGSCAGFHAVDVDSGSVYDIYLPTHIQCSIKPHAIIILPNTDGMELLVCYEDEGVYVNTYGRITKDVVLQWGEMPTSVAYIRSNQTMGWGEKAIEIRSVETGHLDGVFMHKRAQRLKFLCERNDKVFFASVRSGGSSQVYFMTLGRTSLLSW
Chain of HsPI3Kα (P42336 whole entry): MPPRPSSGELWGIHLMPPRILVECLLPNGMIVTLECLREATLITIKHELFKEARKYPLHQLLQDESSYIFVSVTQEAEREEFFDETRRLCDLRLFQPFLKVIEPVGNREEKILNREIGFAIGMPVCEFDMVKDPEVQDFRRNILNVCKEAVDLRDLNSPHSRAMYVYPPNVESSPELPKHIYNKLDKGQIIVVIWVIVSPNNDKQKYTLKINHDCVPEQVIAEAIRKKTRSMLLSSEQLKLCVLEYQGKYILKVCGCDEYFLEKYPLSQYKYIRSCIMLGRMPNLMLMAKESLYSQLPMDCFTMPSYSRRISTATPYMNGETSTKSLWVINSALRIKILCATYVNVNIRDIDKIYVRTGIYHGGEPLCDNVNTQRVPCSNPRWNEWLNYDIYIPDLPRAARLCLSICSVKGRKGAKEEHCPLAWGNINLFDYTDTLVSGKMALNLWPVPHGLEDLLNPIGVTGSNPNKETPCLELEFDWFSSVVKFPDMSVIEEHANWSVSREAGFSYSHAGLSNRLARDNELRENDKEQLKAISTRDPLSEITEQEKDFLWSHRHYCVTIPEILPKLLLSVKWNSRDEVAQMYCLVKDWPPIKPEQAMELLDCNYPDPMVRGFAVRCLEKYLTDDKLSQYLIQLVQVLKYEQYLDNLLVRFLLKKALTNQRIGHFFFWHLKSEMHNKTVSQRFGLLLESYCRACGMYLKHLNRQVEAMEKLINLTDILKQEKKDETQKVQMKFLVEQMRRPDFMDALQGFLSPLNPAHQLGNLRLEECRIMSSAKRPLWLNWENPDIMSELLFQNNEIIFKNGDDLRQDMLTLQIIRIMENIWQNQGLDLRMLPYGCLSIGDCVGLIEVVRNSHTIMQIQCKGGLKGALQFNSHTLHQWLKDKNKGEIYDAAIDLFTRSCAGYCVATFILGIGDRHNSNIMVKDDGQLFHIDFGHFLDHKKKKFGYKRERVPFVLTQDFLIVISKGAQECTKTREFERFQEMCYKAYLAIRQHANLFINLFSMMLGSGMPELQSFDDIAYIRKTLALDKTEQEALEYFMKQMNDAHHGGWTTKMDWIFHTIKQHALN
Chain of HsPI3Kα (P27986 whole entry partner): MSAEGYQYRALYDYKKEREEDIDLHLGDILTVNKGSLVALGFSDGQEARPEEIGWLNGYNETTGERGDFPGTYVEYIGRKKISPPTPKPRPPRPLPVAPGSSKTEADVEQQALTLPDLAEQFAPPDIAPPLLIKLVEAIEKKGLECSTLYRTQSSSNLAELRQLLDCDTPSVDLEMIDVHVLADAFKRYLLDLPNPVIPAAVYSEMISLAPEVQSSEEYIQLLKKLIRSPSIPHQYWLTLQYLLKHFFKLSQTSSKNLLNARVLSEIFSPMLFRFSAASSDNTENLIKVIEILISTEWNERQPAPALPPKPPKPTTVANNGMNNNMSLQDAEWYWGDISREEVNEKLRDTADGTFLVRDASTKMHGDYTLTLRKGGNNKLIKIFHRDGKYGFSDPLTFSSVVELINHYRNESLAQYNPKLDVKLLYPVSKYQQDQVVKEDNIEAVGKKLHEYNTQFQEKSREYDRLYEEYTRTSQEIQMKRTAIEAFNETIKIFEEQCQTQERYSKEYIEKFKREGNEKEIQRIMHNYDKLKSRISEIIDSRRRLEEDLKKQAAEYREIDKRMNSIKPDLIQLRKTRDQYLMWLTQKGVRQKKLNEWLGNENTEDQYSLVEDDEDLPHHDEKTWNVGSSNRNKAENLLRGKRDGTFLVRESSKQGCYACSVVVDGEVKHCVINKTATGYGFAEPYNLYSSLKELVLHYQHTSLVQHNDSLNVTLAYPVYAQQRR

Cn1ccc(-c2ccc3nccc(-c4cccc(S(C)(=O)=O)c4)c3n2)cc1=O [Compound 19, 1-Methyl-4-[8-(3-methylsulfonylphenyl)-1,5-naphthyridin-2-yl]pyridin-2-one] showed an IC50 [1, 14] of 16 nM, a solubility thermodynamic at 20 h (physchem [2]) of 40 µM (≈ 15.7 µg/mL) and a logD at 3 h (physchem [3]) of 1.46. For the same compound, the bioavailability (in vivo) was 27%, the IC50 [4, 15] was 36 nM and the IC50 [4, 16] was 4.3 nM. The IC50 [4, 17] was 48.9 nM, the IC50 [4, 18] was 20.2 nM and the IC50 [4, 19] was 39.2 nM. It also gave an IC50 [4, 20] of 5.2 nM, an IC50 [4, 21] of 2.5 nM and an IC50 [4, 22] of 5.1 nM. The Papp A→B (in vitro [5]) was 14 ×10⁻⁶ cm/s, the CLint scaled at 1 µM (in vitro [6]; microsomes) was less than 13.4 mL/min/kg and the CLint scaled at 1 µM (in vitro [6]; pooled human liver microsomes) was less than 19.7 mL/min/kg. For the same compound, the IC50 ([7]; one biological replicate) was 47000 nM, the “in vivo mouse CLb” value [8] was 102 mL/min/kg and the “in vivo mouse CLu” value [8] was 300 mL/min/kg. For the same compound, the CLint scaled at 1 µM (in vitro [9]; microsomes) was less than 45.7 mL/min/kg and the CLint scaled at 1 µM (in vitro [9]; mouse liver microsomes) was less than 67.2 mL/min/kg.
With CS(=O)(=O)c1cccc(-c2ccnc3ccc(N4CCCC(C(N)=O)C4)nc23)c1 (centres unmarked) [Compound 22, 1-[8-(3-Methylsulfonylphenyl)-1,5-naphthyridin-2-yl]piperidine-3-carboxamide] the IC50 [1, 14] was 67 nM, the IC50 [1, 23] was 67.2 nM and the solubility thermodynamic at 20 h (physchem [2]) was 10 µM (≈ 4.1 µg/mL). For the same compound, the “HsMAP4K4 SI” value (HsMAP4K4) was greater than 4000, the “HsPI3Kα SI” value (HsPI3Kα) was 60 and the “HsMINK1 SI” value (HsMINK1) was greater than 4000. For the same compound, the “HsPI4Kβ SI” value (HsPI4Kβ) was 56 and the IC50 ([7]; one biological replicate) was greater than 50000 nM.
For CNC(=O)c1cncc(-c2cnc(Cl)c(NS(=O)(=O)c3ccccc3)c2)c1 [CHMFL-PI4K-127, 6′-Chloro-N-Methyl-5′-(Phenylsulfonamido)-[3,3′-Bipyridine]-5-Carboxamide], the IC50 [10] is listed as 24 to 47 nM, the IC50 (P. vivax PI4Kβ (PvPI4K); reported inhibitors, Figure 1) is listed as 0.9 nM and the IC50 (HsPI4K) is listed as 430 nM.
Work on CS(=O)(=O)c1cccc(-c2ccc3nccc(-c4ccc(C(=O)N5CCC(O)C5)cc4)c3n2)c1 (centres unmarked) [Compound 37, (3-Hydroxypyrrolidin-1-yl)-[4-[6-(3-methylsulfonylphenyl)-1,5-naphthyridin-4-yl]phenyl]methanone] yielded an IC50 [1, 14] of 32 nM, an IC50 [1, 23] of 32.2 nM and a solubility thermodynamic at 20 h (physchem [2]; aqueous solution) of 60 µM (≈ 28.4 µg/mL). It also gave a logD at 3 h (physchem [3]) of 1.92, a bioavailability (in vivo) of 11% and an IC50 ([11]; K1, pLDH assay, 72 h, read-out: Pf ABS IC50 K1) of 96 nM. The Papp A→B (in vitro [5]) was 1.5 ×10⁻⁶ cm/s, the efflux ratio (in vitro [5]) was 32 and the “IC50 shift against PI4K mutant lines relative to parent Dd2” value [12] was “showed IC50 shifts”. It also gave a CLint scaled at 1 µM (in vitro [6]; microsomes) of less than 13.4 mL/min/kg, a CLint scaled at 1 µM (in vitro [6]; pooled human liver microsomes) of less than 27.3 mL/min/kg and an IC50 ([7]; one biological replicate) of 24000 nM. For the same compound, the “in vivo mouse CLb” value [8] was 181 mL/min/kg, the “in vivo mouse CLu” value [8] was 362 mL/min/kg and the CLint scaled at 1 µM (in vitro [9]; microsomes) was less than 45.7 mL/min/kg. The CLint scaled at 1 µM (in vitro [9]; mouse liver microsomes) was less than 93.2 mL/min/kg.
For CS(=O)(=O)c1cccc(-c2ccnc3ccc(N4CCC(O)CC4)nc23)c1 [Compound 21, 1-[8-(3-Methylsulfonylphenyl)-1,5-naphthyridin-2-yl]piperidin-4-ol], the IC50 [1, 14] was 32 nM, the solubility thermodynamic at 20 h (physchem [2]; aqueous solution) was 150 µM (≈ 57.5 µg/mL) and the logD at 3 h (physchem [3]) was 2.27. The bioavailability (in vivo) was 37%, the IC50 [4, 15] was 84.5 nM and the IC50 [4, 16] was 14 nM. For the same compound, the IC50 [4, 17] was 131 nM, the IC50 [4, 18] was 68.9 nM and the IC50 [4, 19] was 53.6 nM. The IC50 [4, 20] was 21.7 nM, the IC50 [4, 21] was 10.5 nM and the IC50 [4, 22] was 9.7 nM. The Papp A→B (in vitro [5]) was 18 ×10⁻⁶ cm/s, the CLint scaled at 1 µM (in vitro [6]; microsomes) was less than 13.4 mL/min/kg and the CLint scaled at 1 µM (in vitro [6]; pooled human liver microsomes) was less than 17.6 mL/min/kg. For the same compound, the IC50 [13] was 8000 nM, the IC50 ([7]; one biological replicate) was 49000 nM and the “in vivo mouse CLb” value [8] was 80 mL/min/kg. For the same compound, the “in vivo mouse CLu” value [8] was 533 mL/min/kg, the IC50 (HepG2 cells; Homo sapiens, HepG2; read-out: HepG2 IC50) was greater than 50000 nM and the CLint scaled at 1 µM (in vitro [9]; microsomes) was less than 45.7 mL/min/kg. The CLint scaled at 1 µM (in vitro [9]; mouse liver microsomes) was less than 60.1 mL/min/kg.
For CNC(=O)Cc1cccc(-c2ccc3nccc(-c4ccc(C(C)(C)O)nc4)c3n2)c1 [Compound 27, 2-[3-[8-[6-(2-Hydroxypropan-2-yl)pyridin-3-yl]-1,5-naphthyridin-2-yl]phenyl]-N-methylacetamide], the IC50 [1, 24] was 51 nM, the IC50 ([1]; NF54, read-out: PfNF54 IC50) was 50.7 nM and the IC50 ([1]; NF54, read-out: free IC50) was 40 nM. For the same compound, the IC50 [11, 25] was 81 nM, the IC50 ([11]; K1, read-out: PfK1 IC50) was 81.2 nM and the IC50 [13] was 38000 nM. For the same compound, the IC50 [7] was 31000 nM and the IC50 (HepG2 cells; [26]) was 6000 nM.
In the case of CNC(=O)c1ccc(-c2cnc3cnc(C(=O)N(C)c4ccc(Cl)cc4)cn23)cc1 [KDU691], the IC50 [10] is listed as 27 to 70 nM, the IC50 (P. vivax PI4Kβ (PvPI4K)) is listed as 1.6 nM and the IC50 (HsPI4K) is listed as 7900 nM.
In the case of COc1ccc2c3c([nH]c2c1)[C@H](CO)N(C(C)=O)CC31CCN(C(=O)Nc2ccccc2F)CC1 [BRD73842], the IC50 (PfDd2) is listed as 69 nM.
For NS(=O)(=O)c1cccc(-c2ccc3nccc(-c4ccnc(C(F)(F)F)c4)c3n2)c1 [Compound 1], the IC50 [1, 24] is given as 63 nM, the IC50 (P. vivax PI4Kβ (PvPI4K)) is given as 6 nM and the IC50 [11, 25] is given as 86 nM. For the same compound, the IC50 (PfNF54) was 63 nM, the IC50 [13] was 35000 nM and the IC50 (Pf3D7) was 140 nM. The IC50 [7] was 6000 nM and the IC50 (HepG2 cells; [26]) was 48000 nM.

Reference: paper PMC12557380, “Optimization of 2,8-Diaryl-1,5-naphthyridines as Plasmodium falciparum Phosphatidylinositol 4‑Kinase Inhibitors with Improved ADME Profiles and In Vivo Efficacy” (Journal of Medicinal Chemistry, 2025)
